Test results as given in patent US20260284127A1, “COMPOSITIONS OF […] CORDYCEPS AND METHODS OF DELIVERY FOR THE TREATMENT OF ACUTE AND LONG COVID” (priority 2023, published 2026).

Key:
CaCo2 cells = type: in vitro ADME; conditions: 200 μg/ml cordycepin apical, pure solution
Description: Methods: Transepithelial wells with a 1 μm pore size and 0.3 cm^2 surface area were preincubated with DMEM-F12 media with 10% FBS and 10 μg/ml penicillin/streptomycin at 37° C. in 5% CO2 for one hour. CaCo2 cells in the same media were seeded at a density of 50,000 cells. The cells were maintained under these conditions throughout the experiment. Media was changed every 2 to 3 days, and TEER values were monitored from day 10 onward. At day 18, cells with TEER values exceeding 200 ohm/cm^2 were incubated in PAB buffer for 20 minutes: 1 ml in basolateral and 0.5 ml in apical side. Samples of 200 μg/ml cordycepin, and 200 μg/ml cordycepin in a standardized cordyceps extract were prepared in PAB buffer, which was exchanged for the apical buffer. Fifty microlitre samples of both apical and basolateral compartments were acquired initially and at 1 hour intervals. The samples were immediately added to 450 μl of methanol and quantified on an Agilent 4910 LC-mass spectrometer. Cordycepin was measured by direct injection in SMS mode and integrated values were compared against standard curves prepared in the same manner as test samples.

[1] = cordycepin after one oral dose of HAD-B1 formula; cited from earlier work
[2] = cited from earlier work
CaCo2 = conditions: human, Caco-2; cited from earlier work
[3] = given as a pure compound; cited from earlier work

In the case of Nc1ncnc2c1ncn2[C@@H]1O[C@H](CO)C[C@H]1O [cordycepin, 3′-deoxyadenosine], the “cordycepin measured on the basal side” value (CaCo2 cells) is given as “no detectable”, the half-life [1] is given as 8.62 h and the “time to maximal concentration” value [1] is given as 1.5 h. The “experimental solubility in water” value [2] was 1000 µg/mL, the CaCo2 permeability (CaCo2) was 1.1*10^−7 cm/s and the oral bioavailability [3] was “extremely low”.
